In PubChem BioAssay (NCI):
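1) Cells in 96-well plates. 2) Compound, 48 h, 5 concentrations. 3) Linear interpolation between surrounding doses. 4) Unreached endpoint = highest concentration. TGI denotes the concentration required for complete inhibition of growth.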

Tests used:
Test in all cases: inhibition of tumour cell growth, NCI panel, 48 h
SW-620 colon = tested on: SW-620 colon
RXF 393 renal = tested on: RXF 393 renal
OVCAR-3 ovarian = tested on: OVCAR-3 ovarian
RPMI-8226 leukemia = tested on: RPMI-8226 leukemia
A549 NSCLC = tested on: A549 NSCLC
HCT-116 colon = tested on: HCT-116 colon
SNB-75 CNS = tested on: SNB-75 CNS
UACC-62 melanoma = tested on: UACC-62 melanoma
SF-295 CNS = tested on: SF-295 CNS
MALME-3M melanoma = tested on: MALME-3M melanoma
BT-549 breast = tested on: BT-549 breast
CCRF-CEM leukemia = tested on: CCRF-CEM leukemia
SK-MEL-28 melanoma = tested on: SK-MEL-28 melanoma
NCI-H522 lung = tested on: NCI-H522 lung
UACC-257 melanoma = tested on: UACC-257 melanoma
HCT-15 colon = tested on: HCT-15 colon
NCI-H460 lung = tested on: NCI-H460 lung
HL-60(TB) leukemia = tested on: HL-60(TB) leukemia
K-562 leukemia = tested on: K-562 leukemia
M14 melanoma = tested on: M14 melanoma

SMILES	TGI (SW-620 colon)	TGI (RXF 393 renal)	TGI (OVCAR-3 ovarian)	TGI (RPMI-8226 leukemia)	TGI (A549 NSCLC)	TGI (HCT-116 colon)	TGI (SNB-75 CNS)	TGI (UACC-62 melanoma)	TGI (SF-295 CNS)	TGI (MALME-3M melanoma)	TGI (BT-549 breast)	TGI (CCRF-CEM leukemia)	TGI (SK-MEL-28 melanoma)	TGI (NCI-H522 lung)	TGI (UACC-257 melanoma)	TGI (HCT-15 colon)	TGI (NCI-H460 lung)	TGI (HL-60(TB) leukemia)	TGI (K-562 leukemia)	TGI (M14 melanoma)
COc1ccc(C2=Nn3c(nc4sc(C)c(C)c4c3=O)SC2)cc1	> 100 µM	> 100 µM	> 100 µM	> 100 µM	> 100 µM	> 100 µM	> 100 µM	> 100 µM	> 100 µM	> 100 µM	> 100 µM	> 100 µM	> 100 µM	> 100 µM	> 100 µM	> 100 µM	> 100 µM	> 100 µM	> 100 µM	
c1ccc(CSc2ccccc2CN2CCN(Cc3ccccc3SCc3ccccc3)CCN(Cc3ccccc3SCc3ccccc3)CC2)cc1	69.2 µM		1.82 µM	18 µM	10.1 µM	2.03 µM	4.18 µM	3.23 µM	2.45 µM	3.56 µM	4.1 µM	> 100 µM	4.61 µM	1.76 µM	2.94 µM	3.3 µM	2.87 µM	4.06 µM	7.18 µM	2.93 µM
Cc1[nH]n(C2=NCCN2)c(=O)c1C	> 100 µM	> 100 µM	> 100 µM	> 100 µM	> 100 µM	> 100 µM	> 100 µM	> 100 µM	> 100 µM	> 100 µM	> 100 µM	> 100 µM		> 100 µM	> 100 µM	> 100 µM	> 100 µM	> 100 µM	> 100 µM	> 100 µM
COc1ccc2oc(=Nc3ccccc3)c(C(N)=O)cc2c1	> 100 µM	> 100 µM	> 100 µM	> 100 µM	> 100 µM	> 100 µM	> 100 µM		> 100 µM	> 100 µM	> 100 µM	> 100 µM	> 100 µM	> 100 µM	> 100 µM	> 100 µM	> 100 µM	> 100 µM	> 100 µM	> 100 µM
C=C(C)CNC(=S)N(N)c1ccc(OC)cc1	> 100 µM	> 100 µM	> 100 µM	> 100 µM	> 100 µM	> 100 µM	> 100 µM	67.7 µM	> 100 µM	> 100 µM	> 100 µM	> 100 µM	> 100 µM	> 100 µM	> 100 µM	56.8 µM	> 100 µM	> 100 µM	> 100 µM	> 100 µM
O=Nc1c(-c2c(O)[nH]c3ccccc23)[nH]c2ccccc12	> 100 µM	13.2 µM	> 89.7 µM	9.95 µM	> 55.1 µM	> 29.6 µM	16.5 µM	11.1 µM	99.2 µM	27.8 µM	30 µM	29.7 µM	27.7 µM	20.9 µM	> 72.3 µM	> 87.5 µM	28.7 µM	12.3 µM	> 100 µM	25.9 µM
Cc1ccc(-c2cc(-c3ccc(Cl)cc3)nc(/N=C3\C(=O)N(CN4CCOCC4)c4ccccc43)n2)cc1	62.8 µM	30.9 µM	> 100 µM		39.7 µM	93.9 µM	70.2 µM	41.4 µM	> 100 µM	69.4 µM	88.5 µM	88.2 µM	> 100 µM	30.1 µM	46.4 µM	> 100 µM	50.8 µM	26.3 µM	76.8 µM	87.4 µM
Cc1cc(N)ccc1N=Nc1ccc(S(=O)(=O)CCOS(=O)(=O)O)cc1	16.1 µM	23.7 µM	9.55 µM	> 45.4 µM	21.5 µM	12.6 µM	19.8 µM	20.3 µM	9.21 µM	20.5 µM	14.6 µM	> 100 µM	19 µM	0.773 µM	24.3 µM	11.3 µM	12.2 µM	> 38.1 µM		18.4 µM
Cc1c(C#N)c(N)[nH]c(=S)c1C#N	> 100 µM	> 100 µM	> 100 µM	> 100 µM	> 100 µM	> 100 µM	> 100 µM	> 100 µM	> 100 µM	> 100 µM	> 100 µM	> 100 µM	> 100 µM	> 100 µM	> 100 µM	> 100 µM	> 100 µM	> 100 µM	> 100 µM	
Cc1c(-c2ccccc2)[nH]c2ccc(Cl)cc2c1=O	> 100 µM	57.6 µM	72 µM	> 100 µM	0.205 µM	52 µM	95.2 µM	> 100 µM	> 100 µM	48.7 µM	> 100 µM	> 100 µM	> 100 µM	> 100 µM	> 100 µM	> 100 µM	> 100 µM	> 100 µM	> 100 µM	> 100 µM
CC1=C(C#N)C23C(=O)c4ccccc4C(O)=C2C(=O)C=CC3(O)N1 (stereo unspecified)	12.6 µM	9.74 µM	> 100 µM		> 100 µM	> 100 µM	4.56 µM	6.4 µM	66.9 µM	3.86 µM	3.38 µM	> 100 µM	5.23 µM	4.81 µM	4.56 µM	> 100 µM	31.1 µM	15.2 µM	> 100 µM	13 µM
CC(=O)OCC1OC(n2c(C#N)cc(=O)[nH]c2=O)CC1OC(C)=O (stereo unspecified)	> 100 µM	> 100 µM	> 100 µM		> 100 µM	> 100 µM	> 100 µM	> 100 µM	> 100 µM	> 100 µM	> 100 µM	> 100 µM	> 100 µM	> 100 µM	> 100 µM	> 100 µM	> 100 µM	> 100 µM	> 100 µM	> 100 µM
CC1=CC=C2c3ccccc3C=CN2C(=O)C1	> 100 µM		> 100 µM	> 100 µM	> 100 µM	> 100 µM	> 100 µM	> 100 µM	> 100 µM	> 100 µM	56.3 µM	> 100 µM	> 100 µM	> 100 µM	> 100 µM	> 100 µM	> 100 µM	41.2 µM	> 100 µM	> 100 µM
CC1C(=NO)C(C)C(c2ccccc2)N(N=O)C1c1ccccc1 (stereo unspecified)	42 µM	32.7 µM	65.7 µM		40.7 µM	33.3 µM	82 µM	27.2 µM	29.5 µM	34.6 µM	89.8 µM	84.5 µM	32.3 µM	34.5 µM	54.8 µM	31.9 µM	32.1 µM	88.6 µM	> 100 µM	29.5 µM
CCN1C(=S)n2cccc2C1CC(=O)c1ccc(Cl)cc1 (stereo unspecified)	> 100 µM	> 100 µM	> 100 µM	> 100 µM	> 100 µM	> 100 µM	> 100 µM	> 100 µM	> 100 µM	> 100 µM	> 100 µM		> 100 µM	> 100 µM	> 100 µM	> 100 µM	> 100 µM	> 100 µM	> 100 µM	> 100 µM
N=c1oc2c(Br)cc(Br)cc2cc1C(=O)Nc1ccccn1	> 100 µM	> 100 µM	> 100 µM	> 100 µM	> 100 µM	> 100 µM	> 100 µM	> 100 µM		> 100 µM	> 100 µM	> 100 µM	> 100 µM	> 100 µM	> 100 µM	> 100 µM	> 100 µM	> 100 µM	> 100 µM	> 100 µM
Cc1ccccc1N=CN(C)C		> 100 µM	81.2 µM	58.2 µM	> 100 µM	> 100 µM	> 100 µM	> 100 µM	> 100 µM	> 100 µM	> 100 µM	> 100 µM	> 100 µM	94.2 µM	71.1 µM	> 100 µM		39 µM	44.4 µM	> 100 µM
NC(=O)NC(=O)CCC(NS(=O)(=O)c1ccccc1)C(=O)NC(N)=O (stereo unspecified)	> 100 µM		> 100 µM		> 100 µM	> 100 µM	> 100 µM	> 100 µM	> 100 µM	> 100 µM	> 100 µM	> 100 µM	> 100 µM	> 100 µM	> 100 µM	> 100 µM	> 100 µM	> 100 µM	> 100 µM	> 100 µM
CC(C)/C(Cl)=N/OC(=O)Nc1cccc(C(F)(F)F)c1	1.8 µM	18.9 µM	8.12 µM	3.69 µM	39.1 µM	24.7 µM	21.2 µM	27.6 µM	33 µM	3.66 µM	15.6 µM	13.8 µM	10.9 µM	0.951 µM	29.5 µM	3.39 µM	34.3 µM	2.22 µM		13.3 µM
CC(C)(Br)C(Br)CCC(=CCBr)CBr (mixture of isomers)	7.18 µM	6.48 µM		4.83 µM	28.3 µM	4.41 µM	10.9 µM	4.4 µM	10.9 µM	13.5 µM	5.62 µM	6.1 µM	6.86 µM	3.12 µM	15.6 µM	5.98 µM	9.9 µM	2.15 µM	6.7 µM	4.29 µM
